Earlier results on three compounds are cited in patent US20060074101A1, “Method of treating post operative nausea and vomiting” (Helsinn Healthcare SA, priority 2003, published 2006).

For data set [1] the following is noted: in vivo, cited from earlier work.
A further data set concerns PONV. Conditions: Scuderi et al. (2002); cited from earlier work.

The structures appear in SMILES notation. Counter-ions that a name gives are not always drawn. Like-named read-outs stand apart in the source and are kept apart here.

Turning to `Cc1nccn1CC1CCc2c(c3ccccc3n2C)C1=O` (centres unmarked) [ondansetron], the figures for the serum half life in data set [1] and in data set [1] (listed as Zofran) were about 5.5 h and 5 to 6 h, respectively. Moreover, in the data set on PONV, the “patients requiring additional therapy after treatment” value is reported as 38-50%.
For `O=C(O[C@@H]1C[C@@H]2C[C@H]3C[C@H](C1)N2CC3=O)c1c[nH]c2ccccc12` [dolasetron], the serum half life entry in data set [1] is recorded as “approximately 7.5 hours”.
Take `CN1C2CCCC1CC(NC(=O)c1nn(C)c3ccccc13)C2` (centres unmarked) [Kytril, granisetron hydrochloride]: the plasma half-life in data set [1] is 1.77 to 17.73 h.
